Melting point and IC50 data for eight compounds are collected here from patent US20050171102A1, “Semicarbazide derivatives for combating thromboembolic diseases” (priority 2002, published 2005).

SMILES strings stand for the structures. Structures can show the parent of a compound that is named as a salt.

The target of one series is TF/FVIIa (Homo sapiens, UniProt P08709). Description: TF/FVIIa inhibition (TF/FVIIa-IC50), Table 3 'Affinity to Receptors'.
A further series has as its target FXa (Homo sapiens, UniProt P00742). Description: Factor Xa inhibition (FXa-IC50), Table 3 'Affinity to Receptors'.

FXa, sequence (P00742 235-488 limits assumed): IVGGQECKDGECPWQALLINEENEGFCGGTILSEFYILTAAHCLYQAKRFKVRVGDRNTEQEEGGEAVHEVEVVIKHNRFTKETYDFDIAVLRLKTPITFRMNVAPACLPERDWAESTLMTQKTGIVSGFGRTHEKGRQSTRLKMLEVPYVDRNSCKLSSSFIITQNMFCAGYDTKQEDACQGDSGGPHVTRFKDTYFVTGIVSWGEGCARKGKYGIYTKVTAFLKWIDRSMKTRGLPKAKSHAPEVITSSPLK
FXa, sequence (P00742 41-179 limits assumed): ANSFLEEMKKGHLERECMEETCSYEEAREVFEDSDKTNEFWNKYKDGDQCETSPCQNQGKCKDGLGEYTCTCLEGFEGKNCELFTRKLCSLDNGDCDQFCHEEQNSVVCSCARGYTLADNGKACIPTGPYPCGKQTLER
TF/FVIIa, sequence (P08709 213-466 limits assumed): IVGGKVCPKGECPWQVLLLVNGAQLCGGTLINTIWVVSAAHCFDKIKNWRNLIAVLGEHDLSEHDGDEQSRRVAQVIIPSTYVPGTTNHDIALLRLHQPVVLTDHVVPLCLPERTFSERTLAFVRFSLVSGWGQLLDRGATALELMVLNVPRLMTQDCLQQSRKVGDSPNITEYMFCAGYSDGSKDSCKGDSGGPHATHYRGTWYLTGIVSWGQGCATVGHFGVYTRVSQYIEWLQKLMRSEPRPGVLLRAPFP
TF/FVIIa, sequence (P08709 61-212 limits assumed): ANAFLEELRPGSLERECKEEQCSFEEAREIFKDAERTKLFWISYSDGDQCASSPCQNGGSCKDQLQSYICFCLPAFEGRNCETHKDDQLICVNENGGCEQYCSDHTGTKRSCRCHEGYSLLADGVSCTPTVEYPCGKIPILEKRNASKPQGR
TF/FVIIa, sequence (P13726 33-295 partner): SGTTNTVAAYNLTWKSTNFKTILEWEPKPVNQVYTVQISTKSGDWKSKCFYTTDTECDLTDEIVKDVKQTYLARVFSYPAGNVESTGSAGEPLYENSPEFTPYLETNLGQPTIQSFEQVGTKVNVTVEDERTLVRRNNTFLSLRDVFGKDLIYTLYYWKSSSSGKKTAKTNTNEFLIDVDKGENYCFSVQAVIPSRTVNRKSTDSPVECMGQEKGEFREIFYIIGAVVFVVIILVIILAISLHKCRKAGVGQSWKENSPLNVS
Description for FXa: The inhibition of factor Xa by the compounds according to the invention and the measurement of the anticoagulant and antithrombotic activity can be determined by conventional in-vitro or in-vivo methods.

On to `Cc1cc(NC(=O)NN(c2ccccc2)c2cccc(CN)c2)ccc1N1CCCCC1=O.Cl`, for which the melting point fell in the range of 172 to 173 °C.
The compound `Cc1cc(NC(=O)NN(c2ccccc2)c2cccc(C#N)c2)ccc1N1CCOCC1` [5′, 1-(3-cyanophenyl)-4-[3-methyl-4-(morpholin-4-yl)phenyl]-1-phenylsemicarbazide] gave a melting point of 115 to 116 °C.
Compound `N#Cc1cccc(NN(C(=O)Nc2ccc(N3CCCCC3=O)cc2)c2ccccc2)c1` [5″, 1-(3-cyanophenyl)-4-[4-(2-oxopiperidin-1-yl)phenyl]-2-phenylsemicarbazide] showed a melting point of 239 to 241 °C.
`N=C(N)c1cccc(NN(C(=O)Nc2ccc(N3CCOCC3=O)c(Cl)c2)c2ccccc2)c1` [Compound 4.AA, 1-(3-amidinophenyl)-4-[3-chloro-4-(3-oxomorpholin-4-yl)phenyl]-2-phenylsemicarbazide, hydrochloride]: the IC50 came out at 27 nM on TF/FVIIa and 20 nM against FXa.
In turn, `Cc1cc(NC(=O)NN(c2ccccc2)c2cccc(C#N)c2)ccc1N1CCCCC1=O` [Compound 6, 1-(3-cyanophenyl)-4-[3-methyl-4-(2-oxopiperidin-1-yl)phenyl]-1-phenylsemicarbazide] displayed a melting point of 161 to 162 °C.
In turn, `Cc1cc(NC(=O)NN(c2ccccc2)c2cccc(C(=N)N)c2)ccc1N1CCCCC1=O.Cl` [Compound 10, 1-(3-amidinophenyl)-4-[3-methyl-4-(2-oxopiperidin-1-yl)phenyl]-1-phenylsemicarbazide, hydrochloride] displayed a melting point of more than 300 °C. This compound gave an IC50 against TF/FVIIa of 9.8 nM. In addition, the IC50 against FXa was determined as 16 nM.
`Cc1cc(NC(=O)N(Nc2cccc(C(=N)N)c2)c2ccccc2)ccc1N1CCCCC1=O.Cl` [Compound 11, 1-(3-amidinophenyl)-4-[3-methyl-4-(2-oxopiperidin-1-yl)phenyl]-2-phenylsemicarbazide, hydrochloride] gave a melting point of more than 300 °C. Half-maximal inhibition against TF/FVIIa (IC50) was put at 5.1 nM. The compound also had an IC50 on FXa of 8.6 nM.
In turn, `Cc1cc(NC(=O)N(Nc2cccc(CN)c2)c2ccccc2)ccc1N1CCCCC1=O.Cl` [Compound 13, 1-(3-aminomethylphenyl)-4-[3-methyl-4-(2-oxopiperidin-1-yl)phenyl]-2-phenylsemicarbazide, hydrochloride] gave a melting point of 95 to 97 °C. For the same compound, the IC50 on TF/FVIIa worked out at 170 nM. The IC50 on FXa is 130 nM.

The term melting point denotes the temperature, or range, at which the solid turns liquid. What is called IC50 is the point on the concentration scale where inhibition reaches its midpoint. Lower therefore signals inhibition by little substance.
